Among the test systems are A498 renal; CCRF-CEM leukemia; HOP-62 NSCLC; LOX IMVI melanoma; NCI-H226 lung; OVCAR-3 ovarian; OVCAR-8 ovarian; SN12C renal.
What all share (test): NCI tumour cell line growth inhibition, 48 h

Several values for one entry are separate records, joined by “and”; a condition that tells them apart may be missing. Equal entries are not always repeated.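 The compound was tested at five concentrations on cells cultured in 96-well plates, with a 48-hour exposure period. The concentration for 50% growth inhibition is given as GI50. At the TGI there is no net growth.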

For the compound `CCOCC(=O)N[C@H]1CCc2cc(OC)c(OC)c(OC)c2-c2ccc(OC)c(=O)cc21`, the TGI with A498 renal is 8.87 µM; in the test on CCRF-CEM leukemia, greater than 100 µM; in the test on HOP-62 NSCLC, greater than 100 µM; in the test with LOX IMVI melanoma, greater than 100 µM; in the test with NCI-H226 lung, 2.52 µM; with OVCAR-3 ovarian it was 0.0849 µM. For the same compound, the TGI with OVCAR-8 ovarian is 17 µM; in the test with SN12C renal, greater than 100 µM.
In the case of `Cc1ccc(C(=O)N(CCCN)C(c2oc3cc(Cl)ccc3c(=O)c2Cc2ccccc2)C(C)C)cc1` (configuration not stated), the GI50 in the test with A498 renal is less than 0.01 µM; with CCRF-CEM leukemia, less than 0.01 µM; in the test with HOP-62 NSCLC, less than 0.01 µM; in the test on LOX IMVI melanoma it was less than 0.0402 µM; with NCI-H226 lung, 1.47 µM; in the test with OVCAR-3 ovarian, less than 0.01 µM. For the same compound, the GI50 in the test on OVCAR-8 ovarian and in the test on SN12C renal was less than 0.01 µM in each case. The TGI with CCRF-CEM leukemia amounted to 1.7 µM; in the test on HOP-62 NSCLC it was 1.85 µM; in the test with LOX IMVI melanoma, 1.98 µM; in the test with NCI-H226 lung, 3.23 µM; with OVCAR-3 ovarian, 1.14 µM; with OVCAR-8 ovarian it was 1.79 µM. In the test with SN12C renal, this compound yielded a TGI of 2.07 µM.
Turning to `COCCCNC(=O)C1C(=O)C(=O)N(CCCOC)C1=O` (configuration not stated), the TGI in the test on A498 renal, with CCRF-CEM leukemia, with HOP-62 NSCLC, with LOX IMVI melanoma, in the test with NCI-H226 lung and in the test with OVCAR-3 ovarian was greater than 100 µM each time. The TGI in the test on OVCAR-8 ovarian and in the test on SN12C renal was greater than 100 µM in each case.
On to `O=C(O)CCNC1CCCCC1`, for which the GI50 with A498 renal, in the test on CCRF-CEM leukemia, in the test on HOP-62 NSCLC, in the test on LOX IMVI melanoma, in the test on NCI-H226 lung and in the test on OVCAR-3 ovarian was greater than 100 µM each time. Besides, the GI50 in the test with OVCAR-8 ovarian and with SN12C renal was greater than 100 µM each time. Moreover, the TGI in the test with A498 renal, in the test on CCRF-CEM leukemia, with HOP-62 NSCLC, with LOX IMVI melanoma, in the test on NCI-H226 lung and with OVCAR-3 ovarian was greater than 100 µM each time. In addition, the TGI with OVCAR-8 ovarian and with SN12C renal was greater than 100 µM each time.
Regarding `O=C(CCN(C(=O)O)S(=O)(=O)c1ccc(NC(=O)c2ccccc2)cc1)NC1CCCCC1`, the TGI in the test on A498 renal, in the test on CCRF-CEM leukemia, in the test on HOP-62 NSCLC, in the test with LOX IMVI melanoma, in the test with NCI-H226 lung and with OVCAR-3 ovarian was greater than 100 µM each time. Also, the TGI in the test with OVCAR-8 ovarian and in the test on SN12C renal was greater than 100 µM in each case.
For `COC1(OC)CC2OC1C1N=NN(C(=O)OC(C)(C)C)C21` (configuration not stated), the TGI with A498 renal, in the test on CCRF-CEM leukemia, in the test with HOP-62 NSCLC, in the test on LOX IMVI melanoma, in the test with NCI-H226 lung and with OVCAR-3 ovarian was greater than 100 µM in each case. This compound displayed a TGI with SN12C renal greater than 100 µM.
With `CCOC(=O)/C(=C\c1ccccc1)C(=O)O`, the TGI in the test with A498 renal, with CCRF-CEM leukemia, with HOP-62 NSCLC, in the test with LOX IMVI melanoma, in the test with NCI-H226 lung and in the test on OVCAR-3 ovarian was greater than 100 µM throughout. For the same compound, the TGI in the test on OVCAR-8 ovarian and in the test on SN12C renal was greater than 100 µM throughout.
`O=C1CCC(N2C(=O)c3ccccc3C2=O)C(=O)N1CO` (configuration not stated): the GI50 was greater than 100 µM with A498 renal; 30.5 µM in the test with CCRF-CEM leukemia; greater than 100 µM with HOP-62 NSCLC; 23.6 µM in the test on LOX IMVI melanoma; greater than 100 µM with NCI-H226 lung; 67.4 µM with OVCAR-3 ovarian. In addition, the GI50 in the test with OVCAR-8 ovarian is greater than 100 µM; in the test on SN12C renal, 73.7 µM. Moreover, the TGI is greater than 100 µM in the test on A498 renal; greater than 100 µM in the test on CCRF-CEM leukemia; greater than 100 µM in the test on HOP-62 NSCLC; 58 µM in the test on LOX IMVI melanoma; greater than 100 µM in the test on NCI-H226 lung; greater than 100 µM with OVCAR-3 ovarian. Also, the TGI in the test on OVCAR-8 ovarian and in the test on SN12C renal was greater than 100 µM each time.
For `O=C1C(Cl)=C(NCCN2CCOCC2)C(=O)c2ncccc21`, the GI50 with A498 renal is 1.91 µM; in the test with CCRF-CEM leukemia it was 2.34 µM; in the test on HOP-62 NSCLC it was 1.77 µM; in the test with LOX IMVI melanoma it was 0.905 µM; with SN12C renal, 1.93 µM. Also, the TGI was 7.65 µM and 10.9 µM in the test with A498 renal; 2.68 µM and 5.29 µM in the test with CCRF-CEM leukemia; 4.46 µM and 3.36 µM in the test on HOP-62 NSCLC; 3.44 µM and 2.55 µM in the test on LOX IMVI melanoma; 5.14 µM and 3.74 µM with NCI-H226 lung; 3.69 µM and 3.01 µM in the test with OVCAR-3 ovarian. Besides, the TGI in the test with OVCAR-8 ovarian is 3.79 µM and 3.29 µM; in the test with SN12C renal it was 3.2 µM and 3.84 µM.
`Nc1nc2c(nnn2C2CC(O)C(CO)O2)c(=O)[nH]1` (configuration not stated): the GI50 in the test on A498 renal was 8.22 µM; with CCRF-CEM leukemia, 2.39 µM; in the test on HOP-62 NSCLC, 7.91 µM; in the test on LOX IMVI melanoma it was 0.92 µM; in the test with NCI-H226 lung, 8.75 µM; with OVCAR-3 ovarian, 4.78 µM. Besides, the GI50 in the test with OVCAR-8 ovarian is 3.71 µM; in the test on SN12C renal, 5.44 µM. The TGI was greater than 48.1 µM in the test with A498 renal; greater than 100 µM in the test on CCRF-CEM leukemia; greater than 93.9 µM in the test on HOP-62 NSCLC; greater than 83.2 µM with LOX IMVI melanoma; greater than 100 µM in the test with NCI-H226 lung; greater than 69 µM with OVCAR-3 ovarian. In addition, the TGI in the test with OVCAR-8 ovarian and with SN12C renal was greater than 100 µM each time.
With `CS(=O)(=O)c1ccc(-n2nc(C(F)(F)F)cc2OC2CCCC2)cc1`, the GI50 is 25.2 µM in the test on A498 renal; 38.3 µM in the test on CCRF-CEM leukemia; 88 µM in the test on HOP-62 NSCLC; 16.9 µM with LOX IMVI melanoma; 34 µM in the test on NCI-H226 lung; 32.9 µM in the test with OVCAR-3 ovarian. Further, the figures for the GI50 in the test with OVCAR-8 ovarian and in the test on SN12C renal were 43.8 µM and 25.8 µM, respectively. In addition, the TGI in the test on A498 renal is 56.2 µM; in the test on CCRF-CEM leukemia, greater than 100 µM; with HOP-62 NSCLC, greater than 100 µM; with LOX IMVI melanoma, 54.6 µM; in the test with NCI-H226 lung, greater than 100 µM; in the test on OVCAR-3 ovarian, greater than 100 µM. Moreover, the TGI in the test with OVCAR-8 ovarian is greater than 100 µM; in the test with SN12C renal, 71.7 µM.
As to `Cc1ccc(-c2nc3nc(-c4ccccc4)nc(N4CCCNCC4)c3o2)cc1`, the GI50 in the test with A498 renal was 1.53 µM; in the test with CCRF-CEM leukemia, 1.89 µM; in the test on HOP-62 NSCLC, 1.81 µM; in the test on LOX IMVI melanoma, 1.76 µM; in the test on NCI-H226 lung, 1.87 µM; in the test on OVCAR-3 ovarian it was 1.84 µM. For the same compound, the results for the GI50 with OVCAR-8 ovarian and in the test on SN12C renal were 2.06 µM and 1.56 µM, respectively. Further, the TGI is 3.13 µM in the test with A498 renal; 4.23 µM in the test with CCRF-CEM leukemia; 3.36 µM in the test with HOP-62 NSCLC; 3.29 µM in the test with LOX IMVI melanoma; 3.86 µM in the test with NCI-H226 lung; 3.32 µM with OVCAR-3 ovarian. The values for the TGI in the test with OVCAR-8 ovarian and with SN12C renal were 4.1 µM and 3.06 µM, respectively.
